Legend:
[1] = tested on: Blumeria graminis f. Sp. Tritici (Erysiphe graminis f. Sp. Tritici); assay: Blumeria graminis f. sp. tritici / wheat / leaf disc preventative (powdery mildew on wheat); assay type: in vivo; settings: foliar, 200 ppm in the formulation, wheat leaf segments cv. Kanzler, compared to untreated checks, read-out: disease control
Source text: Blumeria graminis f. Sp. Tritici (Erysiphe graminis f. Sp. Tritici)/Wheat/Leaf Disc Preventative (Powdery Mildew on Wheat) Wheat leaf segments cv. Kanzler are placed on agar in a multiwell plate (24-well format) and sprayed with the test compound formulated with DMSO and Tween20 and diluted in water. The leaf disks are inoculated by shaking powdery mildew infected plants above the test plates 1 day after application.

Gaeumannomyces graminis = Gaeumannomyces graminis / liquid culture (take-all of cereals); assay type: cell-based; settings: 200 ppm in the formulation, inhibition of growth determined photometrically, compared to untreated control, read-out: disease control
Experimental: (§1) Gaeumannomyces graminis/Liquid Culture (Take-All of Cereals) Mycelial fragments of the fungus from cryogenic storage were directly mixed into nutrient broth (PDB potato dextrose broth). After placing a (DMSO) solution of test compound into a microtiter plate (96-well format), the nutrient broth containing the fungal spores is added. The test plates are incubated at 24° C. and the inhibition of growth is determined photometrically 4-5 days after application.

[2] = tested on: Glomerella lacenarium (Colletotrichum lacenarium); assay: Glomerella lagenarium / liquid culture (anthracnose); assay type: cell-based; settings: 200 ppm in the formulation, inhibition of growth measured photometrically, compared to untreated checks, read-out: disease control
Experimental: as §1, with “Glomerella lacenarium (Colletotrichum lacenarium)/Liquid” for “Gaeumannomyces graminis/Liquid”, “(Anthracnose) Conidia” for “(Take-All of Cereals) Mycelial fragments”, “are” for “were”, “measured” for “determined”, “3 to 4” for “4-5”

[3] = tested on: Magnaporthe risea (Pyricularia oryzae); assay: whole plant or invertebrate; assay type: in vivo; settings: foliar, read-out: disease control
[4] = tested on: Monocraphella nivalis (Microdochium nivale); assay: Monographella nivalis / liquid culture (foot rot cereals); assay type: cell-based; settings: 200 ppm in the formulation, inhibition of growth determined photometrically, compared to untreated checks, read-out: disease control
Experimental: as §1, with “Monocraphella nivalis (Microdochium nivale)/Liquid” for “Gaeumannomyces graminis/Liquid”, “(Foot Rot” for “(Take-All of”, “Conidia” for “Mycelial fragments”, “are” for “were”

[5] = tested on: Mycosphaerella arachidis (Cercospora arachidicola); assay: Mycosphaerella arachidis / liquid culture (early leaf spot); assay type: cell-based; settings: 200 ppm in the formulation, inhibition of growth determined photometrically, compared to untreated checks, read-out: disease control
Experimental: as §1, with “Mycosphaerella arachidis (Cercospora arachidicola)/Liquid” for “Gaeumannomyces graminis/Liquid”, “(Early Leaf Spot) Conidia” for “(Take-All of Cereals) Mycelial fragments”, “are” for “were”

[6] = tested on: Mycosphaerella raminicola (Septoria tritici); assay: Mycosphaerella graminicola / liquid culture (Septoria blotch); assay type: cell-based; settings: 200 ppm in the formulation, inhibition of growth determined photometrically, compared to untreated checks, read-out: disease control
Experimental: as §1, with “Mycosphaerella raminicola (Septoria tritici)/Liquid” for “Gaeumannomyces graminis/Liquid”, “(Septoria blotch) Conidia” for “(Take-All of Cereals) Mycelial fragments”, “are” for “were”, “4 to 5” for “4-5”

[7] = tested on: Puccinia recondita f. Sp. Tritici; assay: Puccinia recondita f. sp. tritici / wheat / leaf disc preventative (brown rust); assay type: in vivo; settings: foliar, 200 ppm in the formulation, wheat leaf segments cv. Kanzler, compared to untreated checks, read-out: disease control
Pyrenophora teres = Pyrenophora teres / barley / leaf disc preventative (net blotch); assay type: in vivo; settings: foliar, 200 ppm of the formulation, barley leaf segments cv. Hasso, compared to untreated checks, read-out: disease control
Experimental: Pyrenophora teres/Barley/Leaf Disc Preventative (Net Blotch) Barley leaf segments cv. Hasso are placed on agar in a multiwell plate (24-well format) and sprayed with the test compound formulated with DMSO and Tween20 and diluted in water. The leaf segments are inoculated with a spore suspension of the fungus 2 days after application. The inoculated leaf segments are incubated at 20° C. and 65% rh under a light regime of 12 h light/12 h darkness in a climate cabinet and the activity of a compound is assessed as disease control compared to untreated when an appropriate level of disease damage appears in untreated check leaf segments (5 to 7 days after application).

[8] = tested on: Botrvotinia fuckeliana (Botrvtis cinerea); assay: Botryotinia fuckeliana / liquid culture (gray mould); assay type: cell-based; settings: Botrytis cinerea, 200 ppm in the formulation, inhibition of growth determined photometrically, compared to untreated checks, read-out: disease control
Experimental: as §1, with “Botrvotinia fuckeliana (Botrvtis cinerea)/Liquid” for “Gaeumannomyces graminis/Liquid”, “(Gray Mould) Conidia” for “(Take-All of Cereals) Mycelial fragments”, “are” for “were”, “(Vogels” for “(PDB potato dextrose”, “3-4” for “4-5”

Row | Structure (SMILES) | pest or weed control at 200 ppm [1] | inhibition of growth at 200 ppm (Gaeumannomyces graminis) | inhibition of growth at 200 ppm [2] | pest or weed control at 200 ppm [3] | inhibition of growth at 200 ppm [4] | inhibition of growth at 200 ppm [5] | inhibition of growth at 200 ppm [6] | pest or weed control at 200 ppm [7] | pest or weed control at 200 µg/mL (Pyrenophora teres) | inhibition of growth at 200 ppm [8] | melting point
1 | Cc1sc(Nc2cc(F)cc(F)c2)nc1C(=O)NC1C2CCCC2C1(C)C (stereo not shown) [I.y.3, 2-(3,5-difluoroanilino)-N-(6,6-dimethyl-7-bicyclo[3.2.0]heptanyl)-5-methyl-thiazole-4-carboxamide] | ≥ 80% | ≥ 80% | ≥ 80% | ≥ 80% | ≥ 80% | ≥ 80% | ≥ 80% | ≥ 80% | – | – | –
2 | Cc1sc(Nc2cc(F)cc(F)c2)nc1C(=O)NC1CCC12CCCC2 (stereo not shown) [I.s.3, 2-(3,5-difluoroanilino)-5-methyl-N-spiro[3.4]octan-3-yl-thiazole-4-carboxamide] | ≥ 80% | ≥ 80% | ≥ 80% | ≥ 80% | ≥ 80% | ≥ 80% | ≥ 80% | ≥ 80% | ≥ 80% | – | –
3 | CC1(C)C2CCCC2C1NC(=O)c1nc(Nc2cc(F)cc(F)c2)sc1Br (stereo not shown) [I.y.2, 5-bromo-2-(3,5-difluoroanilino)-N-(6,6-dimethyl-7-bicyclo[3.2.0]heptanyl)thiazole-4-carboxamide] | ≥ 80% | ≥ 80% | ≥ 80% | ≥ 80% | ≥ 80% | ≥ 80% | ≥ 80% | ≥ 80% | ≥ 80% | ≥ 80% | –
4 | Cc1sc(Nc2cc(F)cc(F)c2)nc1C(=O)NC1CC12CC2 (stereo not shown) [I.bb.3, 2-(3,5-difluoroanilino)-5-methyl-N-spiro[2.2]pentan-2-yl-thiazole-4-carboxamide] | ≥ 80% | – | ≥ 80% | ≥ 80% | ≥ 80% | ≥ 80% | ≥ 80% | ≥ 80% | – | – | 145 to 175 °C
5 | Cc1sc(Nc2cc(F)cc(F)c2)nc1C(=O)NC(C)C1CCCCC1 (stereo not shown) [I.e.3, N-(1-cyclohexylethyl)-2-(3,5-difluoroanilino)-5-methyl-thiazole-4-carboxamide] | ≥ 80% | ≥ 80% | ≥ 80% | ≥ 80% | ≥ 80% | ≥ 80% | ≥ 80% | ≥ 80% | ≥ 80% | – | –
6 | Cc1sc(Nc2cc(F)cc(F)c2)nc1C(=O)NC1CCC12CCC2 (stereo not shown) [I.r.3, 2-(3,5-difluoroanilino)-5-methyl-N-spiro[3.3]heptan-7-yl-thiazole-4-carboxamide] | ≥ 80% | ≥ 80% | ≥ 80% | ≥ 80% | ≥ 80% | ≥ 80% | ≥ 80% | ≥ 80% | ≥ 80% | ≥ 80% | –
7 | CC(NC(=O)c1nc(Nc2cc(F)cc(F)c2)sc1Br)C1CCCCC1 (stereo not shown) [Compound I.e.2, 5-bromo-N-(1-cyclohexylethyl)-2-(3,5-difluoroanilino)thiazole-4-carboxamide] | ≥ 80% | ≥ 80% | ≥ 80% | – | ≥ 80% | ≥ 80% | ≥ 80% | ≥ 80% | ≥ 80% | ≥ 80% | –
8 | Cc1sc(Nc2cc(F)nc(F)c2)nc1C(=O)NC1CCC12CCCC2 (stereo not shown) [I.s.43, 2-[(2,6-difluoro-4-pyridyl)amino]-5-methyl-N-spiro[3.4]octan-3-yl-thiazole-4-carboxamide] | ≥ 80% | – | ≥ 80% | ≥ 80% | ≥ 80% | ≥ 80% | ≥ 80% | ≥ 80% | ≥ 80% | ≥ 80% | 156 to 162 °C
9 | O=C(NC1CCC12CCC2)c1nc(Nc2cc(F)cc(F)c2)sc1Br (stereo not shown) [I.r.2, 5-bromo-2-(3,5-difluoroanilino)-N-spiro[3.3]heptan-7-yl-thiazole-4-carboxamide] | ≥ 80% | ≥ 80% | ≥ 80% | ≥ 80% | ≥ 80% | ≥ 80% | ≥ 80% | ≥ 80% | ≥ 80% | ≥ 80% | –
10 | CC12CCCC(NC(=O)c3nc(Nc4cc(F)cc(F)c4)sc3Br)C1CC2 (stereo not shown) [I.ah.2, 5-bromo-2-(3,5-difluoroanilino)-N-(6-methyl-2-bicyclo[4.2.0]octanyl)thiazole-4-carboxamide] | ≥ 80% | ≥ 80% | ≥ 80% | ≥ 80% | ≥ 80% | – | ≥ 80% | ≥ 80% | – | ≥ 80% | –
11 | Cc1sc(Nc2cc(F)cc(F)c2)nc1C(=O)NC1CCCC2(C)CCC12 (stereo not shown) [I.ah.3, 2-(3,5-difluoroanilino)-5-methyl-N-(6-methyl-2-bicyclo[4.2.0]octanyl)thiazole-4-carboxamide] | – | ≥ 80% | ≥ 80% | – | ≥ 80% | ≥ 80% | ≥ 80% | – | – | ≥ 80% | –
12 | Cc1sc(Nc2cc(F)nc(F)c2)nc1C(=O)NC1CC12CC2 (stereo not shown) [I.bb.43, 2-[(2,6-difluoro-4-pyridyl)amino]-5-methyl-N-spiro[2.2]pentan-2-yl-thiazole-4-carboxamide] | ≥ 80% | – | ≥ 80% | ≥ 80% | ≥ 80% | ≥ 80% | ≥ 80% | ≥ 80% | ≥ 80% | – | 129 to 158 °C
13 | Cc1sc(Nc2cc(F)cc(F)c2)nc1C(=O)NC(C)(C#N)C(C)C (stereo not shown) [Compound I.n.3, N-(1-cyano-1,2-dimethyl-propyl)-2-(3,5-difluoroanilino)-5-methyl-thiazole-4-carboxamide] | ≥ 80% | ≥ 80% | ≥ 80% | ≥ 80% | ≥ 80% | ≥ 80% | ≥ 80% | ≥ 80% | – | ≥ 80% | –

Source: patent US10662182B2, “Microbiocidal thiazole derivatives” (SYNGENTA PARTICIPATIONS AG, priority 2016, dated 2020)
